Laboratory results taken from publication PMC9127571 (eBioMedicine, 2022).
In brackets after ≈: the same amount, converted by molar mass. Entries after “also recorded” stand apart in the source; their conditions may differ.

Legend:
[1] = Phase 1a plasma pharmacokinetics of SJ733 and metabolite SJ506; type: in vivo, human
[2] = Phase 1a safety and tolerability: adverse events, ECG, laboratory tests; type: in vivo, human
[3] = Beagle dog oral toxicology, safety pharmacology and toxicokinetics; type: in vivo; conditions: high doses
P. falciparum = conditions: cited from earlier work
[4] = Cobicistat plasma pharmacokinetics; type: in vivo, human; conditions: 150 mg, all individuals
[5] = MAD and cobicistat-boosted SAD cohorts

time by which levels were below LLOQ (10 ng/mL) [4] [h] | Structure (SMILES) | individuals with time above MIC >96 h ([1]; 300 mg daily for 3 days) [%] | individuals with time above MIC >96 h ([1]; 600 mg daily for 3 days) [%] | decrease in median post-hoc apparent clearance ([1]; SAD cohorts without vs with cobicistat) [%] | AUC(0-inf) ([1]; human, plasma, oral) [µg·h/mL] | Cmax ([1]; human, plasma, oral, maximal Cmax, unboosted SAD and MAD cohorts) [ng/mL] | relatedness of all AEs to SJ733 or cobicistat [2, 5] | serious adverse events [2, 5] | post-dose QTc above 500 ms ([2]; human, in vivo, oral) | baseline versus post-dose QTc interval change above 60 ms ([2]; instance: Day 3, 1·5 h post 300 mg, unboosted) | methemoglobinemia [3] | estimated minimum inhibitory concentration (MIC) (P. falciparum) [µg/mL] | minimum inhibitory concentration (MIC) (P. falciparum) [µg/mL]
 | N#Cc1cc(NC(=O)[C@H]2c3ccccc3C(=O)N(CC(F)(F)F)[C@@H]2c2cccnc2)ccc1F [SJ733] | 0 | 50 | 72 | 104 | 2180 | unlikely related or unrelated | no serious adverse events; also recorded: no serious AEs | no post-dose QTc interval change above 500 ms | one instance | Dose-dependent, reversible methemoglobinemia | 0.15 | 0.15 (≈ 0.32 µM)
≤ 48 | CC(C)c1nc(CN(C)C(=O)N[C@@H](CCN2CCOCC2)C(=O)N[C@H](CC[C@H](Cc2ccccc2)NC(=O)OCc2cncs2)Cc2ccccc2)cs1 [cobicistat] |  |  |  |  |  |  |  |  |  |  |  | 
